Results: US20040023994A1 (priority 2002, published 2004)
Where two headings read alike, the source gives them in different places. Marks after values point to notes of the source that are not given here.

Columns and labels:
[1] = test system: A-498 cells; assay: MTT cytotoxicity assay; type: cell-based, human
Method: (§1) Preliminary studies examining the in vitro cytotoxicity of cis-AVTP and trans-AVTG as compared to the parent drugs, were carried out using the 3-[4,5-dimethylthiazol-2-yl]-2,5-diphenyl tetrazolium bromide (MTT) cytotoxicity assay.

[2] = test system: ACHN cells; assay: MTT cytotoxicity assay; type: cell-based, human
Method: as §1

[3] = test system: all the cell lines included in the screen; assay: cells
Method: cis-AVTP and trans-AVTG were tested in National Cancer Institute's (NCI) 60 cell lines derived from leukemia, melanoma, lung, kidney cancers. Most chemotherapeutic agents currently nd 6-TG, have been tested in this screen and a database he National Institutes of Health. The NCI assigned s-AVTP, and number NSC-722289 to trans-AVTG. tocol used for the cytotoxicity assessment in the NCI e from the National Institutes of Health. Briefly, tumor ma, lung, colon, brain, ovary, breast, prostate, and um containing 5% fetal bovine serum and 2 mM L-glutamine re plated in a 100 μL volume into 96 well microtiter 37° C. in humidified atmosphere supplemented with 5% ach cell line were fixed with trichloroacetic acid for f drug addition (Tz). The drugs, as 400-fold concentrated uted to twice the final maximum test concentration with entamicin. Additional four 10-fold dilutions were made us control. Aliquots (100 μl) of the drug solutions were 100 μl of medium, resulting in the required final drug the plates were incubated at 37° C. in humidified for additional 48 h. The assay was terminated by the w/v) trichloroacetic acid for adherent and suspension minutes at 4° C. The supernatant was discarded, the and air dried. A 100 μl aliquot of 0.4% (w/v) sulforhodamine B (SRB) solution in 1% acetic acid was added to each well, and the plates incubated for 10 minutes at room temperature. After staining, unbound dye was removed by washing five times with 1% acetic acid and the plates air dried. Bound stain was solubilized with 10 mM trizma base, and the absorbance read on a plate reader at a wavelength of 515 nm.
By using time zero (Tz), control growth (C), and test growth in the presence of drug at the five concentration levels (Ti), the percentage growth was calculated at each of the drug concentration levels. Percentage growth inhibition was calculated as:
[(Ti−Tz)/(C−Tz)]×100 for concentrations for which Ti>/=Tz
[(Ti−Tz)/Tz]×100 for concentrations for which Ti<Tz.
Three dose response parameters were calculated for each experimental agent. […] The TGI, the drug concentration resulting in total growth inhibition was calculated from Ti=Tz. The LC50 (the concentration of drug resulting in a 50% reduction in the measured protein at the end of the drug treatment as compared to that at the beginning) indicating a net loss of cells following treatment was calculated from [(Ti−Tz)/Tz]×100=−50. Values were calculated for each of these three parameters if the level of activity is reached; however, if the effect was not reached or was exceeded, the value for that parameter is expressed as greater or less than the maximum or minimum concentration tested.

[4] = test system: Breast cell lines
[5] = test system: Prostate cell lines
[6] = test system: Colon cell lines
[7] = test system: Renal cell lines
[8] = test system: Melanoma cell lines
[9] = test system: NSCL cell lines
[10] = test system: CNS cell lines
[11] = test system: Leukemia cell lines
[12] = test system: CAKI-1; conditions: CAKI-1, Renal, NCI database, cited from earlier work; for CC50: read-out: LC50 (the source's name)
[13] = test system: Breast cell lines; assay: cells; conditions: for GI50: read-out: median GI50; for CC50: read-out: median LC50
[14] = test system: Prostate cell lines; assay: cells; conditions: for GI50: read-out: median GI50; for CC50: read-out: median LC50
[15] = test system: Colon cell lines; assay: cells; conditions: for GI50: read-out: median GI50; for CC50: read-out: median LC50
[16] = test system: Renal cell lines; assay: cells; conditions: for GI50: read-out: median GI50; for CC50: read-out: median LC50
[17] = test system: Melanoma cell lines; assay: cells; conditions: for GI50: read-out: median GI50; for CC50: read-out: median LC50
[18] = test system: NSCL cell lines; assay: cells; conditions: for GI50: read-out: median GI50; for CC50: read-out: median LC50
[19] = test system: CNS cell lines; assay: cells; conditions: Homo sapiens; for GI50: read-out: median GI50; for CC50: read-out: median LC50
[20] = test system: Leukemia cell lines; assay: cells; conditions: for CC50: read-out: median LC50
[21] = test system: Ovarian cell lines; assay: NCI anticancer screen, by tissue type; conditions: for GI50: read-out: median GI50; for CC50: read-out: median LC50
[22] = test system: SK-OV-3; conditions: for CC50: read-out: LC50
[23] = test system: HCT-116; conditions: for CC50: read-out: LC50
[24] = Homo sapiens, A498, A-498, 72 h incubation, MTT
[25] = Homo sapiens, 72 h incubation, MTT
[26] = all cell lines of the NCI screen
[27] = Homo sapiens, A498, A-498, 96 h drug incubation
[28] = Homo sapiens, 48 h drug incubation
[29] = Homo sapiens, 96 h drug incubation

Compound: Nc1nc2nc[nH]c2c(=S)[nH]1 [6-TG, 6-thioguanine]
- IC50 [1, 24]: 6.9 ± 4.1 µM
- IC50 [2, 25]: 2.5 ± 0.8 µM
- median TGI [3, 26]: 41.3 µM
- GI50 ([3]; read-out: median GI50): 1.04 µM
- CC50 ([3]; read-out: median LC50): > 100 µM
- median TGI [4]: 67.8^# μM
- median TGI [5]: >100 µM
- median TGI [6]: 41.2 µM
- median TGI [7]: 89.2^# μM
- median TGI [8]: 15.3 µM
- median TGI [9]: 24.0 µM
- median TGI [10]: >100 µM
- median TGI ([11]; Leukemia): 19.4 µM
- GI50 [12]: 0.53 µM
- TGI [12]: 15.6 µM
- CC50 [12]: > 100 µM
- GI50 [13]: 1.48 µM
- CC50 [13]: > 100 µM
- GI50 [14]: 1.27 µM
- CC50 [14]: > 100 µM
- GI50 [15]: 1.32 µM
- CC50 [15]: > 100 µM
- GI50 [16]: 1.14 µM
- CC50 [16]: > 100 µM
- GI50 [17]: 1.13 µM
- CC50 [17]: > 100 µM
- GI50 [18]: 0.91 µM
- CC50 [18]: > 100 µM
- GI50 [19]: 1.28 µM
- CC50 [19]: > 100 µM
- GI50 ([20]; read-out: median GI50): 0.33 µM
- CC50 [20]: > 100 µM
- median TGI ([21]; Ovarian): 53.8 µM
- GI50 [21]: 0.7 µM
- CC50 [21]: > 100 µM

Compound: CC(=O)C=CSc1ncnc2nc[nH]c12 [cis-AVTP, 6-(2-acetylvinylthio) purine]
- IC50 ([1]; Homo sapiens, A498, A-498, 24 h drug incubation): 107 ± 14.7 µM
- IC50 ([1]; Homo sapiens, A498, A-498, 48 h drug incubation): 24.6 ± 4 µM
- IC50 [1, 24]: 8 ± 1.2 µM
- IC50 [1, 27]: 5.5 ± 0.9 µM
- IC50 ([2]; Homo sapiens, 24 h drug incubation): 58.2 ± 1.7 µM
- IC50 [2, 28]: 8.7 ± 0.9 µM
- IC50 [2, 25]: 3.7 ± 0.7 µM
- IC50 [2, 29]: 3.5 ± 0.4 µM
- GI50 [3]: < 2 µM
- median TGI [3, 26]: 4.56 µM
- CC50 ([3]; read-out: LC50): < 15 µM
- GI50 ([3]; read-out: median GI50): 0.6 µM
- CC50 ([3]; read-out: median LC50): 38.6 µM
- median TGI [4]: 3.98 µM
- median TGI [5]: 7.09 µM
- median TGI [6]: 4.42 µM
- median TGI [7]: 2.67 µM
- median TGI [8]: 3.24 µM
- median TGI [9]: 12.2 µM
- median TGI [10]: 10.7 µM
- median TGI ([11]; Leukemia): 52.5^# μM
- TGI ([11]; leukemia cell lines CCRF-CEM, HL-60(TB), and RPMI-8226): < 5 µM
- GI50 [13]: 0.55 µM
- CC50 [13]: > 100 µM
- GI50 [14]: 1.69 µM
- CC50 [14]: 54.8 µM
- GI50 [15]: 1.13 µM
- CC50 [15]: 25.3 µM
- GI50 [16]: 0.49 µM
- CC50 [16]: 10.7 µM
- GI50 [17]: 0.48 µM
- CC50 [17]: 9.58 µM
- GI50 [18]: 1.59 µM
- CC50 [18]: 53.7 µM
- GI50 [19]: 1.69 µM
- CC50 [19]: 52.7 µM
- GI50 [20]: < 0.5 µM
- GI50 ([20]; read-out: median GI50): 0.19 µM
- CC50 [20]: > 100 µM
- GI50 ([22]; Homo sapiens, SK-OV-3, 48 h): 0.11 µM
- CC50 ([22]; Homo sapiens, SK-OV-3, 48 h): 33.3 µM
- TGI ([22]; SK-OV-3, Ovarian, 48 h): 5.04 µM
- TGI ([23]; HCT-116, Colon, 48 h): 1.89 µM
- GI50 ([23]; Homo sapiens, HCT-116, 48 h): 0.51 µM
- CC50 ([23]; Homo sapiens, HCT-116, 48 h): 4.73 µM
- median TGI ([21]; Ovarian): 4.55 µM
- GI50 [21]: 0.91 µM
- CC50 [21]: 27.7 µM

Compound: Sc1ncnc2nc[nH]c12 [6-MP, 6-mercaptopurine]
- IC50 [1, 24]: 60.6 ± 25.5 µM
- IC50 [1, 27]: 14.9 ± 6.7 µM
- IC50 [2, 28]: 44.8 ± 5 µM
- IC50 [2, 25]: 6.3 ± 1.9 µM
- IC50 [2, 29]: 0.9 ± 0.3 µM
- median TGI [3, 26]: >100 µM
- GI50 ([3]; read-out: median GI50): 3.97 µM
- CC50 ([3]; read-out: median LC50): > 100 µM
- median TGI [4]: >100 µM
- median TGI [5]: >100 µM
- median TGI [6]: >100 µM
- median TGI [7]: >100 µM
- median TGI [8]: >100 µM
- median TGI [9]: >100 µM
- median TGI [10]: >100 µM
- median TGI ([11]; Leukemia): >100 µM
- GI50 [12]: 2.36 µM
- TGI [12]: >100 µM
- CC50 [12]: > 100 µM
- GI50 [13]: 9.42 µM
- CC50 [13]: > 100 µM
- GI50 [14]: 2.77 µM
- CC50 [14]: > 100 µM
- GI50 [15]: 4.53 µM
- CC50 [15]: > 100 µM
- GI50 [16]: 4.33 µM
- CC50 [16]: > 100 µM
- GI50 [17]: 5.04 µM
- CC50 [17]: > 100 µM
- GI50 [18]: 3.74 µM
- CC50 [18]: > 100 µM
- GI50 [19]: 6.64 µM
- CC50 [19]: > 100 µM
- GI50 ([20]; read-out: median GI50): 1.39 µM
- CC50 [20]: > 100 µM
- median TGI ([21]; Ovarian): >100 µM
- GI50 [21]: 4.77 µM
- CC50 [21]: > 100 µM

Compound: CC(=O)C=CSc1nc(N)nc2nc[nH]c12 [trans-AVTG, 6-(2-acetylvinylthio) guanine]
- IC50 ([1]; A-498, 72 h incubation, MTT): 9.7 ± 2 µM
- IC50 ([2]; 72 h incubation, MTT): 4.1 ± 0.4 µM
- median TGI [3, 26]: 12.9 µM
- GI50 ([3]; read-out: median GI50, all cell lines of the NCI screen): 0.98 µM
- CC50 ([3]; read-out: median LC50, all cell lines of the NCI screen): 76.2 µM
- median TGI [4]: 11.6 µM
- GI50 ([4]; read-out: median GI50): 0.97 µM
- CC50 ([4]; read-out: median LC50): 88.1 µM
- median TGI [5]: 19.7 µM
- GI50 ([5]; read-out: median GI50): 3.96 µM
- CC50 ([5]; read-out: median LC50): 62.5 µM
- median TGI [6]: 9.50 µM
- GI50 ([6]; read-out: median GI50): 1.43 µM
- CC50 ([6]; read-out: median LC50): 62.6 µM
- median TGI [7]: 14.3 µM
- GI50 ([7]; read-out: median GI50): 0.98 µM
- CC50 ([7]; read-out: median LC50): 52.8 µM
- median TGI [8]: 10.1 µM
- GI50 ([8]; read-out: median GI50): 0.73 µM
- CC50 ([8]; read-out: median LC50): 53.1 µM
- median TGI [9]: 19.4 µM
- GI50 ([9]; read-out: median GI50): 2.52 µM
- CC50 ([9]; read-out: median LC50): 61.5 µM
- median TGI [10]: 32.4 µM
- GI50 ([10]; read-out: median GI50): 3.68 µM
- CC50 ([10]; read-out: median LC50): > 100 µM
- median TGI ([11]; Leukemia): 13.4 µM
- GI50 ([11]; read-out: median GI50, Leukemia): 0.37 µM
- CC50 ([11]; read-out: median LC50, Leukemia): > 100 µM
- GI50 ([22]; SK-OV-3, Ovarian, 48 h): 0.24 µM
- TGI ([22]; SK-OV-3, Ovarian, 48 h): 0.78 µM
- CC50 ([22]; SK-OV-3, Ovarian, 48 h): > 100 µM
- GI50 ([23]; HCT-116, Colon, 48 h): 0.67 µM
- TGI ([23]; HCT-116, Colon, 48 h): 3.01 µM
- CC50 ([23]; HCT-116, Colon, 48 h): 14.7 µM
- median TGI ([21]; Ovarian): 3.41 µM
- GI50 ([21]; Ovarian): 0.39 µM
- CC50 ([21]; Ovarian): 51.4 µM
